Experimental data as given in ChEMBL document CHEMBL2074245, “Valacyclovir: a substrate for the intestinal and renal peptide transporters PEPT1 and PEPT2” (Biochem Biophys Res Commun, 1998).

Tests used:
Type in all cases: functional, cell-based
[1] = target: T1, Solute carrier family 15 member 1 (Homo sapiens, UniProt P46059); experiment: TP_TRANSPORTER: inhibition of Gly-Sar uptake in Caco-2 cells
T1 sequence (P46059 whole entry): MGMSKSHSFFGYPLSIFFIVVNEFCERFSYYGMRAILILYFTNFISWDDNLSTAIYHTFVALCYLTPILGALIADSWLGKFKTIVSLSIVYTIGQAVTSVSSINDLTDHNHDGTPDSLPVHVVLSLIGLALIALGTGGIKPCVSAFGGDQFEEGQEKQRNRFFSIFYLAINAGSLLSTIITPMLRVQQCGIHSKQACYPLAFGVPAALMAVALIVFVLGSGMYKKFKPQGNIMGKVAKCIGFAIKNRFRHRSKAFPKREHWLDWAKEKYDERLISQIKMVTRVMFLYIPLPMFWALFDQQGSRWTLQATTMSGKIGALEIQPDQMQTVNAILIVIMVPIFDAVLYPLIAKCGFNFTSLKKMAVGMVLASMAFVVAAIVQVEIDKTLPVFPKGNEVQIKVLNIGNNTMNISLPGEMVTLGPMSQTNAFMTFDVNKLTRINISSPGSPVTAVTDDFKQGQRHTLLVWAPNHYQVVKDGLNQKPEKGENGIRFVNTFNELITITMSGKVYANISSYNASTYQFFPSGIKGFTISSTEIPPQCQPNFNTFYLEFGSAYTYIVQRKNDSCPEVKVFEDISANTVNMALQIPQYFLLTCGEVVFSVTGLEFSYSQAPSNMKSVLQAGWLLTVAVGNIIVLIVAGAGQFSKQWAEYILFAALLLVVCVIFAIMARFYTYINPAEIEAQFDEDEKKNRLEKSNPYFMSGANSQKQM

[2] = target: T2, Solute carrier family 15 member 2 (Rattus norvegicus, UniProt Q63424); experiment: TP_TRANSPORTER: inhibition of Gly-Sar uptake in SKPT cells
T2 sequence (Q63424 whole entry): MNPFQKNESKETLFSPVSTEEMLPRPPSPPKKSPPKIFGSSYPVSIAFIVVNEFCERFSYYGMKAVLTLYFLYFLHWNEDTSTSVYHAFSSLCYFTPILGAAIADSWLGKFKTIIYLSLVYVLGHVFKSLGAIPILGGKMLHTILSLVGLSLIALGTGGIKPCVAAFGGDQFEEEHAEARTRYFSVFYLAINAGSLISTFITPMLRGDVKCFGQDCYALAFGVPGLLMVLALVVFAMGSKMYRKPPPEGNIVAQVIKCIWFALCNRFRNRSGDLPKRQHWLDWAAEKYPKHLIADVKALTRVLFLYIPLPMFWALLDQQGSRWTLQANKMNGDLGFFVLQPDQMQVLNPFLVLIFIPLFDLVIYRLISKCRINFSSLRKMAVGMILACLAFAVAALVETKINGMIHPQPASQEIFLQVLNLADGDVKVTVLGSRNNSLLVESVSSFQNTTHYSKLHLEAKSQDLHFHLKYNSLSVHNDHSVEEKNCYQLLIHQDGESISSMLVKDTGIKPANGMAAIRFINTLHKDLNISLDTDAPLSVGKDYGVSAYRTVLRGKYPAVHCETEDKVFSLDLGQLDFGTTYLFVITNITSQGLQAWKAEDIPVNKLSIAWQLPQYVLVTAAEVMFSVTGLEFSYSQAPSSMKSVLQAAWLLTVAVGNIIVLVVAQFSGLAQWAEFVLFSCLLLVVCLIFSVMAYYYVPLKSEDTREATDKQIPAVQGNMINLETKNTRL

[3] = target: T1, Solute carrier family 15 member 1; experiment: TP_TRANSPORTER: inhibition of Gly-Sar uptake in PEPT1-expressing HeLa cells
[4] = target: T2, Solute carrier family 15 member 2; experiment: TP_TRANSPORTER: inhibition of Gly-Sar uptake in PEPT2-expressing HeLa cells
[5] = substrate: CN(CC(=O)O)C(=O)CN; experiment: TP_TRANSPORTER: uptake in PEPT2-expressing HeLa cells
[6] = substrate: CN(CC(=O)O)C(=O)CN; experiment: TP_TRANSPORTER: uptake in SKPT cells
[7] = substrate: CN(CC(=O)O)C(=O)CN; experiment: TP_TRANSPORTER: uptake in PEPT1-expressing HeLa cells
[8] = substrate: CN(CC(=O)O)C(=O)CN; experiment: TP_TRANSPORTER: uptake in Caco-2 cells

Which Ki [1] does the source give for `CC(C)[C@H](N)C(=O)OCCOCn1cnc2c(=O)[nH]c(N)nc21` [VALACYCLOVIR] here?
Its Ki is 490 µM.

What about the Ki [2] of the same molecule?
The Ki was 170 µM.

What about the Ki [3] of the same molecule?
The Ki was 740 µM.

And the Ki [4]?
Its Ki is 390 µM.

B1: Solute carrier family 15 member 2 (Rattus norvegicus), Q63424 (protein)
chain: T2 sequence (Q63424 whole entry)
How did the Km [5] turn out when B1 was run?
Its Km is 70 µM.

What about the Km [6] of the same molecule?
Its Km is 67 µM.

B2: Solute carrier family 15 member 1 (Homo sapiens), P46059 (protein)
chain: T1 sequence (P46059 whole entry)
Which results are given for B2?
Km [7]: 450 µM; Km [8]: 510 µM
